In US4748172A, “3-bicyclicpyridinium-methyl cephalosporins” (Eli Lilly and Company, priority 1987, dated 1988) one finds MIC data, which are given here for one molecule.

Values after ≈ are worked out from the molar mass of the structure shown.

Holding throughout (assay type): cell-based
The subject of one assay is Staph. epi EPI1. The assay can be described thus: Agar dilution MIC. The note with it: strain EPI1. For orientation: In agar dilution, organisms are placed on agar that contains the substance at set levels.
The subject of the next assay is Staph. aureus V41. The assay can be described thus: Agar dilution MIC. The note with it: Staphylococcus aureus, strain V41.
For another assay, the system named is Klebsiella X68. Nature of the assay: Agar dilution MIC.
The next assay relates to Pseudomonas X239. The assay can be described thus: Agar dilution MIC. The note with it: strain X239. The source says: (§1) The antibacterial activity of several representative compounds of the invention has been evaluated in standard in vitro agar dilution assays. The following Table presents typical minimum inhibitory concentrations (MIC's) in μg/ml for exemplary compounds when evaluated against typical Gram+and Gram-microorganism.
(§2) Agar Dilution MIC (μg/ml)

In the next assay the test system is Pseudomonas X528. Nature of the assay: Agar dilution MIC. The conditions noted are these: strain X528.
Excerpt: as §1, §2

A further assay has as its system Staph. aureus S13E. The assay can be described thus: microbe, parasite or virus in culture. The conditions noted are these: Staphylococcus aureus.
The next assay relates to Strep. D 9960. Nature of the assay: Agar dilution MIC.
Another assay has as its system Staph. aureus X400. The assay can be described thus: Agar dilution MIC. The note with it: Staphylococcus aureus.

In the case of `CO/N=C(\C(=O)N[C@@H]1C(=O)N2C(C(=O)[O-])=C(C[n+]3cccc4nc(N)sc43)CS[C@H]12)c1csc(N)n1` [Example 15, syn-7-[2-(2-aminothiazol-4-yl)-2-methoxyiminoacetamido]-3-(2-aminothiazolo[5,4-b]pyridinium-4-ylmethyl)-3-cephem-4-carboxylate], the MIC came out at 2 µg/mL (≈ 3.66 µM) in the assay on Staph. epi EPI1; 2 µg/mL (≈ 3.66 µM) in the assay with Staph. aureus V41; 4 µg/mL (≈ 7.32 µM) with Klebsiella X68; 2 µg/mL (≈ 3.66 µM) in the assay on Pseudomonas X239; 1 µg/mL (≈ 1.83 µM) against Pseudomonas X528; 4 µg/mL (≈ 7.32 µM) with Staph. aureus S13E. Moreover, the results for the MIC in the assay on Strep. D 9960 and in the assay with Staph. aureus X400 were 8 µg/mL (≈ 14.6 µM) and 32 µg/mL (≈ 58.5 µM), respectively.
